Biological target: T1, MePqqB (Methylobacterium extorquens PqqB, Me PqqB) (Methylorubrum extorquens, UniProt Q49149)
T1 sequence (Q49149 1-299): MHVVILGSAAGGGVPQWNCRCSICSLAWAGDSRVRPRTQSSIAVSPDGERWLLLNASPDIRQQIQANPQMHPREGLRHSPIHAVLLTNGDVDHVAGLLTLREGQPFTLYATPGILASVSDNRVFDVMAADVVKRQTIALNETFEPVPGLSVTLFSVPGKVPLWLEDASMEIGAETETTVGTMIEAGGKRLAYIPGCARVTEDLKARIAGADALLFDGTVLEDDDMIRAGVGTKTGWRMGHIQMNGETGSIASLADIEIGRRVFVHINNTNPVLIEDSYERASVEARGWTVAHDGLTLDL
Test: isothermal titration calorimetry
Format: binding

N[C@@H](CSc1cc(C[C@H](N)C(=O)O)cc(O)c1O)C(=O)O [Cys-DOPA]
Kd: ~200 nM

Source: paper PMC6944208 (Journal of the American Chemical Society, 2019)
